Patent publication US8415374B2, “Combinations of hepatitis C virus inhibitors” (Bristol-Myers Squibb Company, priority 2009, dated 2013)
Where “and” joins values, the source holds several entries; their conditions need not be identical. Equal values may be shown once. Read-outs that look alike come from different tables or passages of the source.

Assays:
Type in all cases: cell-based, Hepatitis C virus
[1] = tested on: genotype 1a HCV replicon cells; experiment: HCV replicon luciferase assay, genotype 1a (monotherapy and combination studies); conditions: genotype 1a replicon, monotherapy, 3 days
HCV replicon [2] = experiment: HCV replicon luciferase assay, triple combinations with lambda interferons (genotype not stated)
Experimental: (§1) The Huh-7 cell-line used for these studies was obtained from Dr. Ralf Bartenschlager (University of Heidelberg, Heidelberg, Germany) and was propagated in DMEM containing 10% FBS, 10 U/ml penicillin and 10 μg/ml streptomycin. The HCV replicons used in these studies were generated at Bristol-Myers Squibb using the procedure described in WO2004014852. The coding sequence of the published genotype 1b HCV replicon (Lohmann, V., F. Korner, J.-O. Koch, U. Herian, L. Theilmann, and R. Bartenschlager 1999, Science 285:110-113) was synthesized by Operon Technologies, Inc. (Alameda, Calif.) using the sequence set forth in EMBL Accession No. AJ242652, nucleotides 1801 to 7758. The functional replicon was then assembled in plasmid pGem9zf(+) (Promega, Madison, Wis.) using standard molecular biology techniques. To create a replicon encoding a luciferase reporter, the gene encoding humanized Renilla Luciferase protein was introduced upstream of the neomycin phosphotransferase gene. The resulting replicon consists of (i) the HCV 5′ UTR fused to the first 12 amino acids of the capsid protein, (ii) the renilla luciferase gene, (iii) the neomycin phosphotransferase gene (neo), (iv) the IRES from encephalomyocarditis virus (EMCV), and (v) HCV NS3 to NS5B genes and the HCV 3′ UTR.
(§2) HCV replicon cell lines were isolated from colonies as described by Lohman, et. al (Lohmann, V., F. Korner, J.-O. Koch, U. Herian, L. Theilmann, and R. Bartenschlager 1999, Science 285:110-113) and used for all experiments. Briefly, replicon clones were linearized with ScaI and RNA transcripts synthesized in vitro using the T7 MegaScript transcription kit (Ambion, Austin, Tex.) according to manufacturer's directions. Ten to 20 μg of in vitro transcribed replicon RNA was introduced into 4−5×10^6 Huh-7 cells by transfection with DMRIE-C reagent (Invitrogen Corporation, Carlsbad, Calif.) following manufacturer's protocols. After 24 h, selective media containing 0.5 mg/mL Geneticin (G418, Gibco-BRL, Rockville, Md.) was added and media was changed every 3 to 5 days. After approximately 4 weeks, cells were expanded for further analysis. Cells were maintained at 37° C. in DMEM (Gibco-BRL, Rockville, Md.) with 10% heat inactivated calf serum (Sigma), penicillin/streptomycin, and 0.5 mg/ml G418.
(§3) To determine compound efficacy, HCV replicon cells were plated at a density of 10^4 per well in 96-well plates in DMEM media containing 10% FBS. Following incubation overnight, compounds serially diluted in DMSO, or DMSO alone, were added to individual wells to a final DMSO concentration of 0.5%. Cell plates were then incubated at 37° C. for 3 days prior to assaying for cytotoxicity and HCV inhibition. Cell viability was measured using an Alamar blue assay and CC50 values were calculated using the median effect equation.
(§4) Plates were then washed two times with PBS and renilla luciferase activity assayed using a Dual-Glo Luciferase Assay System (Promega Corporation, Madison, Wis.) according to the manufacturer's directions. Plates were read on a TopCount NXT Microplate Scintillation and Luminescence Counter (Packard Instrument Company). The 50% effective concentration (EC50) was calculated by using Excel Fit (Version 2.0, Build 30). Known x (compound concentration) and y (% relative to DMSO-only control wells) values were used to calculate the EC50 with Excel Fit equation 205, represented as y=A+((B−A)/(1+((C/x)^D))), where A and B equal the bottom and top plateaus of the curve, respectively, C equals the x value at the middle of the curve, and D equals the slope factor.
(§5) For inhibitor combination studies, IFN-α and inhibitors of HCV NS5A and the NS3 protease were each tested at eleven concentrations. Stock solutions, 200 times the desired final assay concentration, were prepared by 3-fold dilution in DMSO prior to addition to cells/media. The compounds were tested as monotherapies and in combinations with the compound of formula (I) at various concentration ratios.

[3] = tested on: genotype 1b HCV replicon cells; experiment: HCV replicon luciferase assay, genotype 1b (monotherapy and combination studies)
Experimental: as §1, §2, §3, §4, §5

HCV replicon [4] = experiment: HCV replicon luciferase assay, triple combinations with lambda interferons (genotype not stated); conditions: monotherapy (Table 6)

Compound: COC(=O)N[C@H](C(=O)N1CCC[C@H]1c1ncc(-c2ccc(-c3ccc(-c4cnc([C@@H]5CCCN5C(=O)[C@@H](NC(=O)OC)C(C)C)[nH]4)cc3)cc2)[nH]1)C(C)C [NS5A inhibitor of formula (I)]
- EC50 ([1]; Hepatitis C virus, 72 h, read-out: NS5A Inhibitor EC50): 0.037 nM
- EC50 ([1]; read-out: NS5A Inhibitor EC50): 0.045 nM
- EC50 (HCV replicon [2]; Hepatitis C virus, monotherapy (Table 5), read-out: NS5A Inhibitor EC50): 0.003 nM
- EC50 (HCV replicon [2]; Hepatitis C virus, monotherapy (Table 6), read-out: NS5A Inhibitor EC50): 0.008 nM
- EC50 (HCV replicon [2]; monotherapy (Table 5), read-out: NS5A Inhibitor EC50): 0.004 nM
- EC50 (HCV replicon [2]; monotherapy (Table 6), read-out: NS5A Inhibitor EC50): 0.009 nM and 0.005 nM
- EC50 ([3]; Hepatitis C virus, 72 h, genotype 1b replicon, monotherapy, 3 days (Table 3), read-out: NS5A Inhibitor EC50): 0.003 nM
- EC50 ([3]; Hepatitis C virus, genotype 1b replicon cells, monotherapy (Table 4), read-out: NS5A Inhibitor EC50): 0.005 nM
- EC50 ([3]; genotype 1b replicon cells, monotherapy (Table 4), read-out: NS5A Inhibitor EC50): 0.006 nM

Compound: C=C[C@@H]1C[C@]1(NC(=O)[C@@H]1C[C@@H](Oc2ncc(OC)c3ccc(Cl)cc23)CN1C(=O)[C@@H](NC(=O)OC(C)(C)C)C(C)(C)C)C(=O)NS(=O)(=O)C1CC1 [NS3 protease inhibitor of formula (II)]
- EC50 ([1]; Hepatitis C virus, 72 h, read-out: NS3 Protease Inhibitor EC50): 7.8 nM
- EC50 ([1]; read-out: NS3 Protease Inhibitor EC50): 8.5 nM
- EC50 (HCV replicon [2]; Hepatitis C virus, monotherapy (Table 5), read-out: NS3 Protease Inhibitor EC50): 0.63 nM
- EC50 (HCV replicon [2]; Hepatitis C virus, monotherapy (Table 6), read-out: NS3 Protease Inhibitor EC50): 1.4 nM
- EC50 (HCV replicon [2]; monotherapy (Table 5), read-out: NS3 Protease Inhibitor EC50): 0.947 nM and 1.1 nM
- EC50 (HCV replicon [2]; monotherapy (Table 6), read-out: NS3 Protease Inhibitor EC50): 1.2 nM and 2.3 nM
- EC50 ([3]; Hepatitis C virus, 72 h, genotype 1b replicon, monotherapy, 3 days (Table 3), read-out: NS3 Protease Inhibitor EC50): 0.5 nM
- EC50 ([3]; Hepatitis C virus, genotype 1b replicon cells, monotherapy (Table 4), read-out: NS3 Protease Inhibitor EC50): 1.3 nM
- EC50 ([3]; genotype 1b replicon cells, monotherapy (Table 4), read-out: NS3 Protease Inhibitor EC50): 2.2 nM and 1.9 nM and 1.5 nM
- EC50 ([3]; genotype 1b replicon, monotherapy, 3 days (Table 3), read-out: NS3 Protease Inhibitor EC50): 0.6 nM

Compound: rIFNλ1: Recombinant IL-29 expressed in E. coli as a modified N-terminal methionylated form of human IL-29
- rIFNλ1 EC50 (HCV replicon [4]): 0.52 ng/mL and 0.27 ng/mL and 0.53 ng/mL
